Tests used:
HepG2 = assay: Cytotoxicity against human HepG2 cells after 48 hrs by MTT assay; format: functional, cell-based; details: HepG2, 48 h
HCT-116 = assay: Cytotoxicity against human HCT116 cells after 48 hrs by MTT assay; format: functional, cell-based; details: HCT-116, 48 h
MDA-MB-231 = assay: Cytotoxicity against human MDA-MB-231 cells after 48 hrs by MTT assay; format: functional, cell-based; details: MDA-MB-231, 48 h
MCF7 = assay: Cytotoxicity against human MCF7 cells after 48 hrs by MTT assay; format: functional, cell-based; details: MCF7, 48 h
[1] = Solubility of the compound; format: physicochemical
SMMC-7721 = assay: Cytotoxicity against human SMMC7721 cells after 48 hrs by MTT assay; format: functional, cell-based; details: SMMC-7721, 48 h

SMILES	IC50 (HepG2) [µM]	IC50 (HCT-116) [µM]	IC50 (MDA-MB-231) [µM]	IC50 (MCF7) [µM]	solubility [1]	IC50 (SMMC-7721) [µM]
CCCCN1C(=O)c2ccc3c4c(ccc(c24)C1=O)C(=O)N(C1CCCCC1)C3=O	> 50	45.9	> 50	> 50	Insoluble	> 50
CCCCN1C(=O)c2ccc3c4c(ccc(c24)C1=O)C(=O)N(C1CC1)C3=O	> 50	16.3	> 50	> 50	Insoluble	> 50
CN(C)CCN1C(=O)c2cccc3cc(N)cc(c23)C1=O [AMONAFIDE]	9.45	6.46	6.62	12.9	–	9.37
CCCCN1C(=O)c2ccc3c4c(ccc(c24)C1=O)C(=O)N(CCC)C3=O	> 50	> 50	> 50	> 50	Insoluble	> 50
CCCCN1C(=O)c2ccc3c4c(ccc(c24)C1=O)C(=O)N(c1ncccn1)C3=O	17	9.22	15.1	12.6	–	35.1
CCCCN1C(=O)c2ccc3c4c(ccc(c24)C1=O)C(=O)N(CCCN1CCOCC1)C3=O	30.6	32.7	18.2	21.4	–	25.4
CN(C)CCCN1C(=O)c2ccc3c4c(ccc(c24)C1=O)C(=O)N(CCCO)C3=O	5.96	5.29	6.21	3.36	–	4.44
CC(C)CN1C(=O)c2ccc3c4c(ccc(c24)C1=O)C(=O)N(CCCO)C3=O	4.14	8.29	5.39	4.78	–	3.8
CCCCN1C(=O)c2ccc3c4c(ccc(c24)C1=O)C(=O)N(CC(C)C)C3=O	45.2	28.2	> 50	39.6	Insoluble	36.4
CCCCN1C(=O)c2ccc3c4c(ccc(c24)C1=O)C(=O)N(CC1CC1)C3=O	> 50	32.3	> 50	> 50	Insoluble	> 50
CCCCN1C(=O)c2ccc3c4c(ccc(c24)C1=O)C(=O)N(c1cccnc1)C3=O	35.9	36.3	> 50	> 50	–	37.9
O=C1c2ccc3c4c(ccc(c24)C(=O)N1CCCO)C(=O)N(CCCN1CCOCC1)C3=O	3.08	4.35	7.64	6.98	–	2.7
